Publication PMC7026885, “Macrofilaricidal Benzimidazole–Benzoxaborole Hybrids as an Approach to the Treatment of River Blindness: Part 1. Amide Linked Analogs” (ACS Infectious Diseases, 2019)
Like-named read-outs stand apart in the source and are kept apart here. Each block holds one compound with its values, some of them ahead of it.

What was measured:
[1] = system: Onchocerca volvulus L3 larvae; test: Onchocerca volvulus L3 larval molting assay; type: cell-based; conditions: L3 molting assay, Table 1, read-out: O. volvulus IC50
Protocol: The first three analogs from the benzimidazole 5-carboxylic acid, namely 7a (from 6-aminobenzoxaborole), 8a (from 6-aminomethyl-3,3-dimethylbenzoxaborole), and 8b (from 3-aminomethylbenzoxaborole), were prepared and tested in an Onchocerca volvulus L3 larval molting assay[34],[35] and a mammalian G2/M arrest assay[36] to evaluate antifilarial activity and selectivity, respectively (Table 1). O. volvulus is the causative agent of river blindness, and the L3 molting assay is the only widely available and reproducible assay of this filariid, the target of novel macrofilaricidal drugs.[34],[35] Other animal models (e.g., Brugia in gerbils) recapitulate aspects of lymphatic filariasis and are also used as surrogate screens for O. volvulus infections. Of the three compounds tested, 8a emerged as the most attractive compound on the basis of potency and selectivity.
Plates were incubated at 37 °C in a 5% CO2 incubator for 6 days, then molting was assessed visually using an inverted microscope. Molting was determined in each well by counting the presence of fourth stage larvae (L4s) and empty casts of L3s.
The percent inhibition of molting was calculated based on the number of treated larvae that were able to molt in comparison to the number of control larvae that had successfully molted. IC50 values were calculated using GraphPad Prism v6.0
(http://www.graphpad.com). See Bullman et al., PLoS Negl. Trop.
Adult Brugia malayi transplantation in vivo model procedure.
Gerbils (Meriones unguiculatus) were infected by transplantation of 10 male and 10 female adult Brugia malayi into the peritoneal cavity. Gerbils were acclimated for 7 days prior to treatment. Animals were dosed based on their body weight prior to each dosing. Animals were administered their doses at the same time each day and receive standard rodent laboratory diet and water ad libitum. Gerbils were humanely euthanized at the conclusion of each study. Peritoneal counts of male and female adult B. malayi and visual condition of the peritoneum were recorded.
Brugia pahangi L3 injection in vivo model procedure 8.
Male gerbils (Meriones unguiculatus) approximately 6 weeks of age (50-60 g) were purchased from Charles Rivers (USA, Kingston K62 Gerbils) and infected by intraperitoneal injection with 200 Brugia pahangi third-stage larvae (L3) per animal
(Filariatech, Inc., Athens, GA). Gerbils were housed with no more than 5 animals per cage and maintained 9 months prior to treatment. All gerbils were dosed in accordance with their body weight determined prior to each dosing. Animals were […]

[2] = Plasma drug concentrations in treated infected gerbils; type: in vivo; conditions: for concentration at 42 day: day 42; for concentration at 28 day: day 28
Protocol: We characterized the in vitro ADME properties of 8a in preparation for evaluation of this compound in our primary in vivo model in gerbils. […] We were pleased to find that 8a was able to kill 100% of both male and female worms in the gerbil peritoneum when dosed subcutaneously at 100 mg/kg/day for 14 days as a suspension in a nonsolubilizing HEC/Tween vehicle. […] The subsequent assessment of the pharmacokinetics of 8a from these two dosing paradigms provided an interesting observation that we believe to be important in understanding the PK–PD requirements for achieving efficacy in this animal model. […] We had made the same observation in a positive control group using flubendazole at a subcutaneous dose of 10 mg/kg/day for 5 days in the nonsolubilizing HEC/Tween vehicle, namely, that plasma levels of flubendazole were maintained above the in vitro IC50 (4 nM) for over 42 days, consistent with data reported in the literature.[43] […] We next examined 8a in two additional in vivo models, the first where L3 B. pahangi larvae were injected into the peritoneum of gerbils and allowed to develop into adult worms[45] and a second where gerbils were naturally infected by the filarial nematode Litomosoides sigmodontis.[46],[47] In both of these models, 8a was administered subcutaneously at 100 mg/kg for 14 days or orally at 100 mg/kg for 28 days as a suspension. […] Additionally, when plasma obtained from treated animals at necropsy was analyzed for 8a, we observed an outcome similar to that observed in the adult implantation model, e.g., that measurable levels were present at this time point in the subcutaneous-dosed groups but not in the orally dosed groups, weeks after administration of the drug. In a final L. sigmodontis experiment with 8a, we dosed the compound subcutaneously at 300 mg/kg for 7 days as a suspension.

B. malayi/pahangi worms = test: ex vivo B. malayi/pahangi assay; type: cell-based; conditions: short (<7 days) exposure of worms

Structure (SMILES): COC(=O)Nc1nc2cc(C(=O)NCc3ccc4c(c3)B(O)OC4(C)C)ccc2[nH]1 [8a]
IC50 [1]: 300 nM
drug concentration at necropsy ([2]; B. malayi model, necropsy day 42, 100 mg/kg × 28 days, QD, PO (suspension)): <LOQ
drug concentration at necropsy ([2]; B. pahangi model, necropsy day 63, 100 mg/kg × 28 days, QD, PO (suspension)): <LOQ
concentration at 24 h after last dose ([2]; gerbil, plasma, po, 100 mg/kg, B. malayi model, 100 mg/kg × 28 days, QD, PO (suspension), read-out: drug concentration 24 h after last dose): 128 nM
concentration at 24 h after last dose ([2]; gerbil, plasma, po, 100 mg/kg, B. pahangi model, 100 mg/kg × 28 days, QD, PO (suspension), read-out: drug concentration 24 h after last dose): 130 nM
concentration at 42 day ([2]; gerbil, plasma, po, 100 mg/kg, L. sigmodontis model, 100 mg/kg × 28 days, QD, PO (suspension), read-out: drug concentration interim): 6 nM
concentration at 63 day (necropsy) ([2]; gerbil, plasma, po, 100 mg/kg, L. sigmodontis model, necropsy day 63, 100 mg/kg × 28 days, QD, PO (suspension)): 3 nM
concentration at 24 h after last dose ([2]; gerbil, plasma, po, 100 mg/kg, L. sigmodontis model, 100 mg/kg × 28 days, QD, PO (suspension), read-out: drug concentration 24 h after last dose): 210 nM
concentration at 28 day ([2]; gerbil, plasma, sc, 100 mg/kg, B. malayi model, 100 mg/kg × 14 days, QD, SC (suspension), read-out: drug concentration interim): 5360 nM
concentration at 42 day (necropsy) ([2]; gerbil, plasma, sc, 100 mg/kg, B. malayi model, necropsy day 42, 100 mg/kg × 14 days, QD, SC (suspension), read-out: drug concentration at necropsy): 3380 nM
concentration at 24 h after last dose ([2]; gerbil, plasma, sc, 100 mg/kg, B. malayi model, 100 mg/kg × 14 days, QD, SC (suspension), read-out: drug concentration 24 h after last dose): 4100 nM
concentration at 63 day (necropsy) ([2]; gerbil, plasma, sc, 100 mg/kg, B. pahangi model, necropsy day 63, 100 mg/kg × 14 days, QD, SC (suspension)): 1150 nM
concentration at 24 h after last dose ([2]; gerbil, plasma, sc, 100 mg/kg, B. pahangi model, 100 mg/kg × 14 days, QD, SC (suspension), read-out: drug concentration 24 h after last dose): 5870 nM
concentration at 63 day (necropsy) ([2]; gerbil, plasma, sc, 100 mg/kg, L. sigmodontis model, necropsy day 63, 100 mg/kg × 14 days, QD, SC (suspension)): 69 nM
concentration at 24 h after last dose ([2]; gerbil, plasma, sc, 100 mg/kg, L. sigmodontis model, 100 mg/kg × 14 days, QD, SC (suspension), read-out: drug concentration 24 h after last dose): 9300 nM
concentration at 28 day ([2]; gerbil, plasma, sc, 150 mg/kg, B. malayi model, 150 mg/kg × 14 days, QD, SC (solution), read-out: drug concentration interim): 70 nM
concentration at 42 day (necropsy) ([2]; gerbil, plasma, sc, 150 mg/kg, B. malayi model, necropsy day 42, 150 mg/kg × 14 days, QD, SC (solution), read-out: drug concentration at necropsy): 10 nM
concentration at 24 h after last dose ([2]; gerbil, plasma, sc, 150 mg/kg, B. malayi model, 150 mg/kg × 14 days, QD, SC (solution), read-out: drug concentration 24 h after last dose): 2470 nM
concentration at 21 day ([2]; gerbil, plasma, sc, 300 mg/kg, L. sigmodontis model, day 21, 300 mg/kg × 7 days, QD, SC (suspension), read-out: drug concentration interim): 10600 nM
concentration at 42 day ([2]; gerbil, plasma, sc, 300 mg/kg, L. sigmodontis model, 300 mg/kg × 7 days, QD, SC (suspension), read-out: drug concentration interim): 4640 nM
concentration at 63 day (necropsy) ([2]; gerbil, plasma, sc, 300 mg/kg, L. sigmodontis model, necropsy day 63, 300 mg/kg × 7 days, QD, SC (suspension)): 480 nM
concentration at 24 h after last dose ([2]; gerbil, plasma, sc, 300 mg/kg, L. sigmodontis model, 300 mg/kg × 7 days, QD, SC (suspension), read-out: drug concentration 24 h after last dose): 7850 nM
killing of worms after short exposure (B. malayi/pahangi worms): not effective in killing the worms

concentration at 24 h after last dose ([2]; gerbil, in vivo, sc, 10 mg/kg, drug concentration 24 h after last dose): 178 nM
time plasma levels maintained above in vitro IC50 (4 nM) ([2]; gerbil, in vivo, sc, 10 mg/kg/day): over 42 days
Structure (SMILES): COC(=O)Nc1nc2cc(C(=O)c3ccc(F)cc3)ccc2[nH]1 [compound 1, Flubendazole, reference compound]
IC50 [1]: 4 nM
concentration at 42 day (necropsy) ([2]; gerbil, in vivo, sc, 10 mg/kg, drug concentration at necropsy): 43 nM
killing of worms after short exposure (B. malayi/pahangi worms): not effective in killing the worms
